Measured values taken from US9321849B2, “Uranium-chelating peptides and uses thereof” (priority 2003, dated 2016).
Like-named read-outs stand apart in the source and are kept apart here.

Assays:
[1] = TRLS titration of uranyl nitrate with calmodulin, Dynafit simulation; assay type: binding; settings: 0.4 μM uranyl nitrate, 1.0 mM phosphate buffer pH 7.0, two-site simulation
Method: (§1) The coordination of uranium (in uranyl form, 2.0 μM) by the native protein in 1 mM phosphate medium was also studied. The complexation of uranium with the protein is reflected by a drop in uranyl fluorescence intensity. The titration spectra are represented in FIG. 13. In another experiment, a 0.4 μM solution of uranyl nitrate in a 1.0 mM phosphate buffer (pH 7.0) was titrated with a solution of calmodulin up to a protein concentration of 8 μM. After the addition of 8 μM of calmodulin, calcium ions were added up to the concentration of 8 mM (FIG. 14). The values for the titration of uranyl by calmodulin were interpreted by simulating the experimental data with a system of equations corresponding to one, two, three or four independent sites for uranium (FIG. 16). The Dynafit software (Kuzmic, P. 1996, Anal. Biochem. 237, 260-273) was used for these simulations. […] The values for competition with the calcium ions were also interpreted with a system of suitable equations and the simulation of the experimental points with this system is given in FIG. 17. […] It is also considered, as a hypothesis, that each of these two sites is independent of the other. […]

[2] = Competition between calcium and uranyl for calmodulin, Dynafit simulation; assay type: binding; settings: 8 μM calmodulin, 0.4 μM uranyl, calcium up to 8 mM
Method: as §1

[3] = tested on: MLCKp peptide (calmodulin-binding domain of myosin light chain kinase); test: Tryptophan fluorescence of the MLCKp ligand peptide in the presence of calmodulin; set-up: species or system rabbit; settings: 5 μM MLCKp
Method: The fluorescence spectra are recorded on a Cary Eclipse spectrometer (Varian, France) equipped with a thermostated cuvette holder. The excitation wavelength used is 280 nm with slot widths of 10 nm for excitation and of 2.5 nm for emission. The spectra are recorded between 300 nm and 450 nm in a cuvette with a 1 cm optical path.
In the presence of calcium, calmodulin can bind and activate a large diversity of targets. Among these, the MLCKp peptide, which has 17 residues and is derived from the calmodulin-binding domain of a rabbit muscle myosin light chain kinase (CALBIOCHEM), has the following sequence:
In a first series, a fluorescence spectrum for the tryptophan of the ligand, dissolved at a concentration of 5 μM in a 10 mM MES buffer, at pH 6.5, was recorded as described in example 1.
Excitation of the solution at 280 nm makes it possible to detect an emission at 350 nm, characteristic of a tryptophan exposed to the aqueous solvent.
This is compatible with a structure similar to that obtained in the case of calcium. […] The emission detected is then that of the metal (λ>450 nm) and no longer that of the tryptophan.

calmodulin
Kd ([1]; read-out: dissociation constant, uranyl, first of two high-affinity sites): 3300 ± 400 nM | Kd ([1]; read-out: dissociation constant, uranyl, second of two high-affinity sites): 720 ± 200 nM | displacement of uranium by calcium [2]: just one of the two sites complexed with uranium is displaced by calcium | increase in intensity of ligand tryptophan fluorescence ([3]; 10 mM MES pH 6.5, one equivalent of calmodulin, absence of metals): 25% | increase in intensity of ligand tryptophan fluorescence ([3]; one equivalent of calmodulin, 10 equivalents of calcium): 20% | ligand tryptophan fluorescence in the presence of uranyl ([3]; one equivalent of calmodulin, uranyl): complete extinction of the fluorescence
